Reference: US12435087B2, “Modulators of DCN-1 and methods of use thereof” (Cellarity, Inc., priority 2023, dated 2025)
Like-named read-outs stand apart in the source and are kept apart here.

Target: DCN1 (DCUND1) protein PONY domain (Homo sapiens (Human), UniProt Q96GG9)
Assay: TR-FRET assay (binding to DCN-1, displacement of FAM-labeled probe)
Text: (§1) The TR-FRET assay was designed following the Scott et al. protocol (Scott et al., Nat Chem Biol. 2017 August; 13(8): 850-857. doi:10.1038/nchembio.2386). The recombinant form of the DCN1 (DCUND1) protein PONY domain was produced using an E. coli expression system at Viva Biotech (China). The DCN1 protein was biotinylated (EZ sulfo-NHS-LC-biotin; Thermofisher) for labeling with streptavidin terbium (Tb) cryptate in the reaction. The probe was changed to a non-covalent DCN1 inhibitor labeled with carboxyfluorescein (FAM; Zhou et al., Nat Commun. 2017; 8: 1150. doi: 10.1038/s41467-017-01243-7). Buffer conditions were modified to enhance protein stability by exchanging Tween20 for TritonX and increasing NaCl to 200 mM. The compounds were screened against 5 nM DCN1 and 20 nM FAM-probe or 0.31 nM DCN1 and 900 nM total probe (100 nM FAM-labeled plus 800 nM unlabeled). The TR-FRET ratio between Tb-DCN1 and the FAM-labeled probe was measured in a 384-well opti-plate (Perkin Elmer) using a plate reader (BMG) at 1, 5, and 24 hrs after treatment with compound (final DMSO concentration of 0.1%). The ratio was normalized to the high (DCN1 and FAM-probe) and low (DCN1 and no probe) controls for a readout of % activity (=100*(x−low)/(high−low).
A TR-FRET assay was performed to evaluate the ability of the compounds to bind the DCN-1 protein.
as §1, with “850-857. Doi: 10.1038/nchembio.2386).” for “850-857. doi:10.1038/nchembio.2386).”, “the DCNI” for “the DCN1”, “1150. Doi:” for “1150. doi:”, “0.1%).” for “0.1%). The ratio was normalized to the high (DCN1 and FAM-probe) and low (DCN1 and no probe) controls for a readout of % activity (=100*(x−low)/(high−low).”

[1] = 24 hr after treatment with compound, read-out: TR FRET IC50 24 hr
[2] = TR FRET IC50 1 hr (nM), 1 hr after treatment with compound
[3] = read-out: TR FRET IC50 1 hr, 1 hr after treatment with compound

Sequence of DCN1 (DCUND1) protein PONY domain (Q96GG9 60-248): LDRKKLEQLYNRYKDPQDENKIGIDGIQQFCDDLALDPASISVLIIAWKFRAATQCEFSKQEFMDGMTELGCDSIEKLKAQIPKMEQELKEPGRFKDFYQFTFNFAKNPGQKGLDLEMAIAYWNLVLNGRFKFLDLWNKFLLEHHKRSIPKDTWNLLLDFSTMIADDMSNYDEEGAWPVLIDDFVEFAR

| Structure (SMILES) | IC50 [1] [nM] | IC50 [2] [nM] | IC50 [3] [nM] |
| --- | --- | --- | --- |
| C/C=C(\CN1CC2(COC2)C1)C(=O)NCc1cccc([C@@H]2c3cnn(-c4ccccc4)c3N(CC)C(=O)[C@H]2NC(=O)c2nccc(C(F)(F)F)n2)c1 [Compound I-243] | ≤ 200 | 200 to 1000 | – |
| C/C=C(\CN1CCOCC1)C(=O)NCc1cccc([C@@H]2c3cnn(-c4ccccc4)c3N(CC)C(=O)[C@H]2NC(=O)c2ccn(C(F)(F)F)n2)c1 [Compound I-284] | ≤ 200 | 1000 to 3000 | – |
| CCN1C(=O)[C@@H](NC(=O)c2cccc(C(F)(F)F)c2)[C@H](c2ccccc2NC(=O)CCl)c2c(C)nn(-c3ccccc3)c21 [Compound I-52, N-((4R,5S)-4-(2-(2-chloroacetamido)phenyl)-7-ethyl-3-methyl-6-oxo-1-phenyl-4,5,6,7-tetrahydro-1H-pyrazolo[3,4-b]pyridin-5-yl)-3-(trifluoromethyl)benzamide] | ≤ 200 | 1000 to 3000 | – |
| C/C=C(\CN1CCOCC1)C(=O)NCc1cccc([C@@H]2c3cnn(-c4ccccc4)c3N(CC)C(=O)[C@H]2NC(=O)c2ccn(C3CC3)n2)c1 [Compound I-241] | ≤ 200 | 1000 to 3000 | – |
| C=C(CN1CC2CCC(C1)O2)C(=O)NCc1cccc([C@@H]2c3cnn(-c4ccccc4)c3N(CC)C(=O)[C@H]2NC(=O)c2ccn(C(F)(F)F)n2)c1 [Compound I-347] | ≤ 200 | – | ≤ 200 |
| CCN1C(=O)[C@H](NC(=O)c2cccc(C(F)(F)F)c2)[C@@H](c2cccc(NC(=O)C3=CCC3)c2)c2c(C)nn(-c3ccccc3)c21 [Compound I-94, N-((4S,5R)-4-(3-(cyclobut-1-ene-1-carboxamido)phenyl)-7-ethyl-3-methyl-6-oxo-1-phenyl-4,5,6,7-tetrahydro-1H-pyrazolo[3,4-b]pyridin-5-yl)-3-(trifluoromethyl)benzamide] | 1000 to 3000 | – | 1000 to 3000 |
| C=C(CN1CCN(C2COC2)CC1)C(=O)NCc1cccc([C@@H]2c3c(C)nn(-c4ccccc4)c3N(CC)C(=O)[C@H]2NC(=O)c2cccc(C(F)(F)F)c2)c1 [Compound I-353] | ≤ 200 | – | ≤ 200 |
| C=C(CN1CCOCC1)C(=O)NCc1cccc([C@@H]2c3cnn(-c4ccccc4)c3N(CC)C(=O)[C@H]2NC(=O)c2ccn(CC)n2)c1 [Compound I-351] | ≤ 200 | 200 to 1000 | – |
| C=C(CN1CC2CCC(C1)O2)C(=O)NCc1cccc([C@@H]2c3cnn(-c4ccccc4)c3N(CC)C(=O)[C@H]2NC(=O)c2nccc(C(F)(F)F)n2)c1 [Compound I-292] | ≤ 200 | – | ≤ 200 |
| C=C(CN1CCN(C2COC2)CC1)C(=O)NCc1cccc([C@@H]2c3cnn(-c4ccccc4)c3N(CC)C(=O)[C@H]2NC(=O)c2nccc(C(F)(F)F)n2)c1 [Compound I-163] | ≤ 200 | – | ≤ 200 |
| CCN1C(=O)[C@H](NC(=O)c2cccc(C(F)(F)F)c2)[C@@H](c2cccc(NC(C)=O)c2)c2c(C)nn(-c3ccccc3)c21 (racemic) [Compound I-124] | 1000 to 3000 | 1000 to 3000 | – |
| C=C(C(=O)NCc1cccc([C@@H]2c3cnn(-c4ccccc4)c3N(CC)C(=O)[C@H]2NC(=O)c2nccc(C(F)(F)F)n2)c1)C(C)N1CC2CC(C1)O2 (some centres unmarked) [Compound I-324] | ≤ 200 | – | ≤ 200 |
| CCN1C(=O)[C@@H](NC(=O)c2cccc(C(F)(F)F)c2)[C@H](c2cccc(CN(C)C/C=C/C(=O)N3CCCC3)c2)c2cnn(-c3ccccc3)c21 [Compound I-255] | 1000 to 3000 | 1000 to 3000 | – |
| C=C(C(=O)NCc1cccc([C@@H]2c3cnn(-c4ccccc4)c3N(CC)C(=O)[C@H]2NC(=O)c2ccn(C(F)(F)F)n2)c1)C(C)N1CCOCC1 (some centres unmarked) [Compound I-296] | ≤ 200 | – | ≤ 200 |
| CCN1C(=O)[C@@H](NC(=O)c2cccc(C(F)(F)F)c2)[C@H](c2cncc(NC(=O)C3=CCC3)c2)c2cnn(-c3ccccc3)c21 [Compound I-319] | 200 to 1000 | 1000 to 3000 | – |
| CCN1C(=O)[C@H](NC(=O)c2cccc(C(F)(F)F)c2)[C@@H](c2cccc(NC(=O)C#CCN3CCOCC3)c2)c2c(C)nn(-c3ccccc3)c21 (racemic) [Compound I-139, rac-N-((4R,5S)-7-ethyl-3-methyl-4-(3-(4-morpholinobut-2-ynamido)phenyl)-6-oxo-1-phenyl-4,5,6,7-tetrahydro-1H-pyrazolo[3,4-b]pyridin-5-yl)-3-(trifluoromethyl)benzamide] | 200 to 1000 | 1000 to 3000 | – |

| Structure (SMILES) | IC50 [1] [nM] | IC50 [2] [nM] | IC50 [3] [nM] |
| --- | --- | --- | --- |
| C=C(CN(C)C1COC1)C(=O)NCc1cccc([C@@H]2c3c(C)nn(-c4ccccc4)c3N(CC)C(=O)[C@H]2NC(=O)c2cccc(C(F)(F)F)c2)c1 [Compound I-312] | ≤ 200 | – | ≤ 200 |
| CCN1C(=O)[C@@H](NC(=O)c2nccc(C(F)(F)F)n2)[C@H](c2cccc(C(=O)N3CCC[C@@H]3C#N)c2)c2cnn(-c3ccccc3)c21 (mixture of isomers) [Compound I-250] | 1000 to 3000 | 1000 to 3000 | – |
| C=C(CN1CCN(C2COC2)CC1)C(=O)NCc1cccc([C@@H]2c3cnn(-c4ccccc4)c3N(CC)C(=O)[C@H]2NC(=O)c2nccc(C(F)(F)F)n2)n1 [Compound I-333] | ≤ 200 | 200 to 1000 | – |
| C=C(COC)C(=O)Nc1cccc([C@H]2c3c(C)nn(-c4ccccc4)c3N(CC)C(=O)[C@@H]2NC(=O)c2cccc(C(F)(F)F)c2)c1 [Compound I-158] | ≤ 200 | 1000 to 3000 | – |
| C=C(CN1CCN(C2COC2)CC1)C(=O)N[C@@H](C)c1cccc([C@@H]2c3cnn(-c4ccccc4)c3N(CC)C(=O)[C@H]2NC(=O)c2nccc(C(F)(F)F)n2)c1 (mixture of isomers) [Compound I-380] | 1000 to 3000 | 1000 to 3000 | – |
| CCN1C(=O)[C@H](NC(=O)c2cccc(C(F)(F)F)c2)[C@@H](c2cccc(CNC(=O)C3=CCN(C)C3)c2)c2cnn(-c3ccccc3)c21 [Compound I-128] | 1000 to 3000 | 1000 to 3000 | – |
| C=C(CO)C(=O)NCc1cccc([C@H]2c3cnn(-c4ccccc4)c3N(CC)C(=O)[C@@H]2NC(=O)c2cccc(C(F)(F)F)c2)c1 [Compound I-87] | 1000 to 3000 | 1000 to 3000 | – |
| CCN1C(=O)[C@@H](NC(=O)c2cccc(C(F)(F)F)c2)[C@H](c2cccc(CNC#N)c2)c2cnn(-c3ccccc3)c21 (racemic) [Compound I-29] | 1000 to 3000 | 1000 to 3000 | – |
| C/C=C(\CN1CCC(F)(F)C1)C(=O)Nc1cccc([C@@H]2c3cnn(-c4ccccc4)c3N(CC)C(=O)[C@H]2NC(=O)c2nccc(C(F)(F)F)n2)c1 [Compound I-368] | ≤ 200 | 1000 to 3000 | – |
| CC#CC(=O)N(C)c1ccccc1[C@H]1c2cnn(-c3ccccc3)c2N(CC)C(=O)[C@@H]1NC(=O)c1cccc(C(F)(F)F)c1 (racemic) [Compound I-98, ˜{N}—[˜{rac}-(4˜{S},5˜{R})-4-[2-[but-2-ynoyl(methyl)amino]phenyl]-7-ethyl-6-oxo-1-phenyl-4,5-dihydropyrazolo[3,4-b]pyridin-5-yl]-3-(trifluoromethyl)benzamide] | 1000 to 3000 | 1000 to 3000 | – |
| C/C=C(\CN(C)C1COC1)C(=O)NCc1cccc([C@@H]2c3cnn(-c4ccccc4)c3N(CC)C(=O)[C@H]2NC(=O)c2csc(C(F)(F)F)n2)c1 [Compound I-365] | ≤ 200 | 200 to 1000 | – |
| C=C(CO)C(=O)Nc1cccc([C@@H]2c3c(C)nn(-c4ccccc4)c3N(CC)C(=O)[C@H]2NC(=O)c2cccc(C(F)(F)F)c2)c1 (racemic) [Compound I-71] | 200 to 1000 | 1000 to 3000 | – |
| CCN1C(=O)[C@H](NC(=O)c2cccc(C(F)(F)F)c2)[C@@H](c2ccccc2NC(C)=O)c2cnn(-c3ccccc3)c21 (racemic) [Compound I-26, rac-N-((4R,5S)-4-(2-acetamidophenyl)-7-ethyl-6-oxo-1-phenyl-4,5,6,7-tetrahydro-1H-pyrazolo[3,4-b]pyridin-5-yl)-3-(trifluoromethyl)benzamide] | > 3000 | > 3000 | – |
| C=C(CN(C)C1COC1)C(=O)Nc1cccc([C@H]2c3c(C)nn(-c4ccccc4)c3N(CC)C(=O)[C@@H]2NC(=O)c2cccc(C(F)(F)F)c2)c1 (racemic) [Compound I-3] | ≤ 200 | – | ≤ 200 |
| C=C(CC(=O)NCc1cccc([C@H]2c3cnn(-c4ccccc4)c3N(CC)C(=O)[C@@H]2NC(=O)c2cccc(C(F)(F)F)c2)c1)C(=O)OC [Compound I-109] | 1000 to 3000 | 1000 to 3000 | – |
